Reference: patent publication US20220072165A1, “RADIODRUG FOR DIAGNOSTIC/THERAPEUTIC USE IN NUCLEAR MEDICINE AND RADIO-GUIDED MEDICINE” (UNIVERSITÀ DEGLI STUDI DI ROMA "LA SAPIENZA", priority 2019, published 2022)

How the values were obtained:
[1] = biological target: T1, norepinephrine transporter (NET) (Homo sapiens, UniProt P23975); assay: competition with ^3H-NE for uptake by SK-N-SH cells; format: cell-based; settings: for inhibition of the uptake/internalization of ^3H-NE (competition with ^3H-NE): 1 hour, tested up to 100 μM; for substrate of NET compared with MIBG: competition with ^3H-NE
T1 construct: human neuroblastoma cells SK-N-SH, which are known to express the transporter NET in large quantity; host or cells: SK-N-SH human neuroblastoma cells
T1 sequence (P23975 whole entry): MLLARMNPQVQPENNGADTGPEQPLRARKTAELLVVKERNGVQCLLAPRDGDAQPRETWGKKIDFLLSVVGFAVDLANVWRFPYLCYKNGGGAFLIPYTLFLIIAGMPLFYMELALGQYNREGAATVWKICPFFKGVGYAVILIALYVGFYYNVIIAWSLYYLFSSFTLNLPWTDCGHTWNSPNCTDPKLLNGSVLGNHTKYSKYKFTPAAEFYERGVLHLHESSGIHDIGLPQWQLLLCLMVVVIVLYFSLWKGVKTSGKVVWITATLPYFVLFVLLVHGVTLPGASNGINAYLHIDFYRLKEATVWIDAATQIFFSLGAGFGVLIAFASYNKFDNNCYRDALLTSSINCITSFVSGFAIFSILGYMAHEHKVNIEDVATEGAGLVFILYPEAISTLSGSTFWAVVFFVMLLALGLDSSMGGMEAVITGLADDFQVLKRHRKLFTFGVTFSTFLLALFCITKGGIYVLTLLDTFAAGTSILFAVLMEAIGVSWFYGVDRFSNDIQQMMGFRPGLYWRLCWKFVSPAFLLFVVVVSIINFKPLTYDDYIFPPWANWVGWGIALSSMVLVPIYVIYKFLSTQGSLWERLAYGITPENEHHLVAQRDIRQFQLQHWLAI
Excerpt: The ability of the ^89Y-DOTA-BG chelate (1a, MC4324) (non-radioactive analogue of the compound of Formula II, 1 or MC4324) to act as substrate of NET has been evaluated in competition experiments with the tritiated endogenous substrate ^3H-NE for the uptake by the human neuroblastoma cells SK-N-SH, which are known to express the transporter NET in large quantity. […] This provides the ability to prepare radio-marked versions of the chelate of Formula II (or MC4324) with an even low specific activity, because the absence of competition for NET between the chelate (MC4324) and the free binder 9 (MC4325) doesn't compromise the bonding ability to NET of the chelate (compound of Formula II, MC4324) also in the presence of an excess of free binder 9 (MC4325).
FIG. 3 depicts the competition of the ^89Y-DOTA-BG chelate (1a, MC4324) (non-radioactive analogue of the compound of Formula II, 1 or MC4324) and of free binder 9 (MC4325) with ^3H-NE (50 nM, 1 hour incubation, T=37° C.) for the uptake by the SK-N-SH cells. ^1H-NE a 20 μM and MIBG @ 2 μM have been used as positive controls.
^3H-NE has been purchased from Perkin Elmer. To measure the initial cell uptake speeds of ^3H-NE, the cells have been grown for 16 hours in the presence of serum only, then incubated with binder medium (EMEM containing 0.2% BSA and 20 mM Hepes, pH 7.5) for 10 minutes by heating in a water bath at 37° C. The bond has been initiated by adding 0.5 ml per well of 50 nM ^3H-NE to the binder medium for […], the plates have then been placed on ice and washed three times with frozen PBS. Thus, the cell monolayers have been dried and lysed with […]. The cpm (“counts” per minute) have been determined separately in the different wells in triple for each time. By cpm is meant “counts” or “hits” per minute, i.e. the nuclear disintegrations that occur in one minute. These disintegrations come from inside the cells after these have been, following the order below: 1) incubated with ^3H-NE, 2) washed with PBS to eliminate ^3H-NE remained outside the cells, 3) lysed for better detecting the radioactivity due to the internalized ^3H-NE only.
The background bond has been determined in parallel in a fourth well containing a 400 times molar excess of non-marked ^1H-NE (“cold”). For the competition study, the cells have been plated as above, and thus incubated for 1 hour with 50 nM ^3H-NE in binder medium in the absence and presence of the ^89Y-DOTA-BG chelate (compound of Formula II, 1a or MC4324) (non-radioactive analogue of the compound of Formula II, 1 or MC4324) and free binder 9 (MC4325) at different concentrations. The radioactivity has been determined separately in the wells in triple for each concentration value. The uptake of ^3H-NE has been expressed as total radioactivity percentage normalized for mg of protein.
The ability of the “cold” chelates of Formula III (10a′, MC4801) and IV (10b′, MC4803) to act as substrates of NET has been evaluated in competition experiments with the tritiated endogenous substrate ^3H-NE for the uptake by the human neuroblastoma cells SK-N-SH, which are known to express the transporter NET in large quantity. […] Therefore also in this case it is possible to prepare radio-marked versions of the chelates of Formula III (10a, MC4801) and IV (10b, MC4803) with low specific activity, as the absence of competition for NET between the chelates 10a,b (MC4801 and MC4803) and the respective free binders 13a,b (MC4802 and MC4804) doesn't compromise the bonding ability to NET of the chelates [compounds of Formula III (10a, MC4801) and IV (10b, MC4803)] also in the presence of an excess of free binders 13a,b (MC4802 and MC4804). […]

[2] = stability in human serum (release of ^90Y^3+ to serum proteins); format: in vitro ADME; settings: 32 MBq per 16 ml, T=37° C., 14 days
Procedure: The stability in serum of the […] chelate of Formula II (1 or MC4324) has been evaluated by measuring the release of the metal cation ^90Y^3+ from the chelate to the serum proteins during 14 days in which it has been kept in physiological conditions. Briefly, the ^90Y-DOTA-BG chelate of Formula II (1 or MC4324) has been incubated with human serum (32 MBq for 16 ml of serum) at T=37° C. At regular time intervals serum aliquots have been collected and, by using centrifuge filter tubes (Amicon® Ultra-4 3K, Merck Millipore) and by centrifuging at 5500 g, the serum proteins have been separated from the non-protein fraction of serum and the radioactivity of both fractions has been measured with a liquid scintillation β counter (scintillation liquid used is Perkin Elmer ULTIMA GOLD).
The stability in serum of the chelates of Formula III (10a, MC4801) and IV (10b, MC4803) has been evaluated by measuring the release of the metal cation ^90Y^3+ from the chelates to the serum proteins during 14 days in which they have been kept in physiological conditions. Briefly, the chelates of Formula III (10a, MC4801) and IV (10b, MC4803) have been incubated with human serum (32 MBq per 16 ml of serum) at T=37° C. At regular time intervals serum aliquots have been collected and, by using centrifuge filter tubes (Amicon® Ultra-4 3K, Merck Millipore) and by centrifuging at 5500 g, the serum proteins have been separated from the non-protein fraction of serum and the radioactivity of both fractions has been measured with a liquid scintillation β counter (scintillation liquid used is Perkin Elmer ULTIMA GOLD).

[3] = system: human neuroblastoma line SK-N-SH; assay: cytotoxic effects in SK-N-SH cells; format: cell-based; settings: up to the maximum concentration tested (100 μM)
[4] = chemical stability in physiological conditions (PBS buffer, 37° C., analytical HPLC); format: physicochemical; settings: for Area 1 (chromatographic peak of compound 1a) / Area (1 + 2) (peaks of compound 1a and impurity 2): PBS, 37° C.
Procedure: The stability of the chelate ^89Y-DOTA-BG (1a, MC4324) (non-radioactive analogue of the compound of Formula II, 1 or MC4324) in physiological conditions has been evaluated by analysis with analytical HPLC (Shimadzu Nexera chromatograph equipped with a SPD-M20A PDA detector; Hypersil ODS GOLD 250×4.6 mm column; eluent: MeOH/H2O 5:95 v/v+0.02% TFA, flow: 1.0 ml/min; UV detection 214 nm) repeated at regular time intervals after having solubilized it in PBS buffer (c=0.9 mg/ml) and kept at T=37° C.
FIG. 2 depicts the HPLC plot relative to the compound ^89Y-DOTA-BG (1a) solubilized in PBS buffer (c=0.9 mg/ml) and at T=37° C. time t=0 min (A), t=21 hours (B) and t=5 days (C). […]

SMILES: N=C(N)NCc1cccc(C(=O)NCCNC(=O)CN2CCN(CC(=O)O)CCN(CC(=O)O)CCN(CC(=O)O)CC2)c1 [compound 9, 2,2′,2″-(10-(2-((2-(3-(guanidinomethyl)benzamido)ethyl)amino)-2-oxoethyl)-1,4,7,10-tetraazacyclododecane-1,4,7-triyl) triacetic acid]
- inhibition of the uptake/internalization of ^3H-NE (competition with ^3H-NE) ([1]; 50 nM ^3H-NE, 37° C.): completely unable to compete

SMILES: N=C(N)NCc1cccc(C(=O)NCCNC(=O)CN2CCN(CC(=O)[O-])CCN(CC(=O)[O-])CCN(CC(=O)[O-])CC2)c1.[90Y+3] [compound 1]
- loss of radioactivity (^90Y^3+) in favor of the protein fraction of serum [2]: no measurable loss of radioactivity

SMILES: N=C(N)NCc1cccc(C(=O)NCCCNC(=O)CN2CCN(CC(=O)[O-])CCN(CC(=O)[O-])CCN(CC(=O)[O-])CC2)c1.[89Y+3] [10a′]
- inhibition of the uptake/internalization of ^3H-NE (competition with ^3H-NE) ([1]; 50 nM ^3H-NE, 37° C.): dose-dependent inhibition
- substrate of NET compared with MIBG [1]: substrate of NET analogously to MIBG, even though with lower power
- substrate of NET compared with MIBG ([1]; listed as Formula III): substrates of NET analogously to MIBG
- cytotoxic effects [3]: without dose-dependent cytotoxic effects
- cytotoxic effects ([3]; listed as Formula III): without cytotoxic effects

SMILES: N=C(N)NCc1cccc(C(=O)NCCCNC(=O)CN2CCN(CC(=O)O)CCN(CC(=O)O)CCN(CC(=O)O)CC2)c1 [13a, 2,2′,2″-(10-(2-((3-(3-(guanidinomethyl)benzamido)propyl)amino)-2-oxoethyl)-1,4,7,10-tetraazacyclododecane-1,4,7-triyl) triacetic acid]
- inhibition of the uptake/internalization of ^3H-NE (competition with ^3H-NE) ([1]; 50 nM ^3H-NE, 37° C.): completely unable to compete

SMILES: N=C(N)NCc1cccc(C(=O)NCCCCNC(=O)CN2CCN(CC(=O)[O-])CCN(CC(=O)[O-])CCN(CC(=O)[O-])CC2)c1.[90Y+3] [10b]
- loss of radioactivity (^90Y^3+) in favor of the protein fraction of serum [2]: no measurable loss of radioactivity

SMILES: N=C(N)NCc1cccc(C(=O)NCCCNC(=O)CN2CCN(CC(=O)[O-])CCN(CC(=O)[O-])CCN(CC(=O)[O-])CC2)c1.[90Y+3] [10a]
- loss of radioactivity (^90Y^3+) in favor of the protein fraction of serum [2]: no measurable loss of radioactivity

SMILES: CC(CCNC(=O)CN1CCN(CC(=O)O)CCN(CC(=O)O)CCN(CC(=O)O)CC1)NC(=O)c1cccc(CNC(=N)N)c1 (stereo not drawn) [13b, 2,2′,2″-(10-(2-((3-(3-(guanidinomethyl)benzamido)butyl)amino)-2-oxoethyl)-1,4,7,10-tetraazacyclododecane-1,4,7-triyl) Triacetic Acid]
- inhibition of the uptake/internalization of ^3H-NE (competition with ^3H-NE) ([1]; 50 nM ^3H-NE, 37° C.): completely unable to compete

SMILES: N=C(N)NCc1cccc(I)c1 [MIBG, reference compound]
- competition of positive control with ^3H-NE for the internalization ([1]; non-marked MIBG at 2 μM): compete with ^3H-NE for the internalization

SMILES: NC[C@H](O)c1ccc(O)c(O)c1 [^1H-NE, reference compound]
- competition of positive control with ^3H-NE for the internalization ([1]; non-marked ^1H-NE at 20 μM): compete with ^3H-NE for the internalization

SMILES: N=C(N)NCc1cccc(C(=O)NCCNC(=O)CN2CCN(CC(=O)[O-])CCN(CC(=O)[O-])CCN(CC(=O)[O-])CC2)c1.[89Y+3] [1a]
- chemical purity after 5 days ([4]; PBS buffer c=0.9 mg/ml, T=37° C., HPLC UV 214 nm, 5 days): higher than 99.5%
- Area 1 (chromatographic peak of compound 1a) ([4]; time 0 min): 34.78
- Area (1 + 2) (peaks of compound 1a and impurity 2) ([4]; time 0 min): 35.13
- Area 1 (chromatographic peak of compound 1a) ([4]; time 30 min): 35.09
- Area (1 + 2) (peaks of compound 1a and impurity 2) ([4]; time 30 min): 35.29
- Area 1 (chromatographic peak of compound 1a) ([4]; time 1 hour 30 min): 35.07
- Area (1 + 2) (peaks of compound 1a and impurity 2) ([4]; time 1 hour 30 min): 35.30
- Area 1 (chromatographic peak of compound 1a) ([4]; time 5 hours): 35.13
- Area (1 + 2) (peaks of compound 1a and impurity 2) ([4]; time 5 hours): 35.40
- Area 1 (chromatographic peak of compound 1a) ([4]; time 21 hours): 37.15
- Area (1 + 2) (peaks of compound 1a and impurity 2) ([4]; time 21 hours): 37.45
- Area 1 (chromatographic peak of compound 1a) ([4]; time 5 days): 38.34
- Area (1 + 2) (peaks of compound 1a and impurity 2) ([4]; time 5 days): 38.65
- IC50 ([1]; 50 nM ^3H-NE, 1 hour incubation, 37° C., read-out: inhibition of the ^3H-NE uptake IC50): ~10 µM
- inhibition of the uptake/internalization of ^3H-NE (competition with ^3H-NE) ([1]; 50 nM ^3H-NE, 37° C.): dose-dependent inhibition
- substrate of NET compared with MIBG [1]: substrate of NET analogously to MIBG, even though with lower power
- cytotoxic effects [3]: without dose-dependent cytotoxic effects
